Paper PMC6154598, “Alkamides from Anacyclus pyrethrum L. and Their in Vitro Antiprotozoal Activity” (Molecules : A Journal of Synthetic Chemistry and Natural …, 2017)
In brackets after ≈: the same amount, converted by molar mass. Like-named read-outs stand apart in the source and are kept apart here.

Experiments:
P. falciparum (NF54 IEF) [1] = tested on: P. falciparum (NF54 IEF); set-up: method as in PMID 24853616; conditions: previously reported data; cited from earlier work
[2] = tested on: T. b. rhodesiense (STIB 900 strain, bloodstream trypomastigotes); experiment: In vitro antiprotozoal activity against T. b. rhodesiense; type: cell-based, Trypanosoma brucei rhodesiense; conditions: for SI Tbr: ratio of cytotoxic (L6) over antiprotozoal IC50 (Tbr)
Method: (§1) Tests for antiprotozoal activities were carried out using established standard protocols at the Swiss Tropical and Public Health Institute (Swiss TPH, Basel, Switzerland). The assays and the IC50 determinations were performed essentially as described previously. The compounds used as positive controls in the various bioassays (see Table 1) were of commercial origin, with the exception of melarsoprol, which was a gift from the WHO. Their purity (generally >95%) was specified by the manufacturers. The purity of test compounds was assessed by UHPLC/MS analyses and found to be >90% in case of compounds 1–6 and >80% in case of 7. Compounds 8 + 9 represented a mixture in a ratio of approximately 1:4 (Figure S10).

[3] = Cytotoxicity against L6 rat skeletal myoblasts; type: cell-based
Method: as §1

[4] = tested on: L. donovani (MHOM-ET-67/L82 strain, axenic amastigotes); experiment: In vitro antiprotozoal activity against L. donovani; type: cell-based, Leishmania donovani; conditions: for SI Ld: ratio of cytotoxic (L6) over antiprotozoal IC50 (Ld)
Method: as §1

[5] = tested on: T. cruzi (Tulahuen C4 strain; intracellular amastigotes); experiment: In vitro antiprotozoal activity against T. cruzi; type: cell-based, Trypanosoma cruzi
Method: as §1

P. falciparum (NF54 IEF) [6] = experiment: In vitro antiprotozoal activity against P. falciparum; type: cell-based, Plasmodium falciparum; conditions: for SI Pf: ratio of cytotoxic (L6) over antiprotozoal IC50 (Pf)
Method: as §1

[7] = tested on: L6 rat skeletal myoblast cell line; experiment: Cytotoxicity against L6 rat skeletal myoblasts; type: cell-based
Method: as §1

[8] = Trypanosoma brucei, STIB 900 strain, bloodstream trypomastigotes, mean of two determinations ± deviation, read-out: IC50 Tbr
[9] = Trypanosoma brucei, STIB 900 strain, bloodstream trypomastigotes, value in μM of pure compound, read-out: IC50 Tbr (in brackets)
[10] = rat, IC50 Cytotox (in brackets)
[11] = Leishmania donovani, MHOM-ET-67/L82 strain, axenic amastigotes, mean of two determinations ± deviation, read-out: IC50 Ld
[12] = Leishmania donovani, MHOM-ET-67/L82 strain, axenic amastigotes, value in μM of pure compound, read-out: IC50 Ld (in brackets)
[13] = Trypanosoma cruzi, Tulahuen C4 strain, intracellular amastigotes, mean of two determinations ± deviation, read-out: IC50 Tc
[14] = Trypanosoma cruzi, Tulahuen C4 strain, intracellular amastigotes, value in μM of pure compound, read-out: IC50 Tc (in brackets)
[15] = Plasmodium falciparum, NF54, NF54 IEF, mean of two determinations ± deviation, read-out: IC50 Pf
[16] = Plasmodium falciparum, NF54, NF54 IEF, value in μM of pure compound, read-out: IC50 Pf (in brackets)
[17] = L6 rat skeletal myoblast cell line, mean of two determinations ± deviation, read-out: IC50 Cytotox
[18] = L6 rat skeletal myoblast cell line, value in μM of pure compound, read-out: IC50 Cytotox (in brackets)
[19] = Plasmodium falciparum, NF54, read-out: IC50 Pf
[20] = Plasmodium falciparum, NF54, read-out: IC50 Pf (in brackets)
[21] = NF54 IEF, mean of two determinations ± deviation

Compound | IC50 [2, 8] [µg/mL] | IC50 [2, 9] [µM] | SI Tbr [2] | IC50 ([3]; rat, IC50 Cytotox) [µg/mL] | IC50 [3, 10] [µM] | IC50 [4, 11] [µg/mL] | IC50 [4, 12] [µM] | SI Ld [4] | IC50 [5, 13] [µg/mL] | IC50 [5, 14] [µM] | IC50 (P. falciparum (NF54 IEF) [6]; [15]) [µg/mL] | IC50 (P. falciparum (NF54 IEF) [6]; [16]) [µM] | SI Pf (P. falciparum (NF54 IEF) [6]) | further results
CCCCC/C=C/C=C/C(=O)NCC(C)C [Compound 2, deca-2E,4E-dienoic acid isobutylamide] |  |  |  |  |  |  |  |  |  |  |  |  |  | IC50 Pf (P. falciparum (NF54 IEF) [1]): 3.3 µg/mL (≈ 14.8 µM)
C=CCCC/C=C/C=C/C(=O)NCC(C)C [Compound 3, deca-2E,4E,9-trienoic acid isobutylamide] | 2.91 ± 0.21 | 13.2 | 5.7 | 16.7 ± 0.1 | 75.3 | 4.77 ± 1.02 | 21.6 | 3.5 | 39.9 | 181 | 7.13 ± 0.63 | 32.2 | 2.3 | 
CCCCC/C=C/C=C/C(=O)NCCc1ccccc1 [Compound 4, deca-2E,4E-dienoic acid 2-phenylethylamide] | 4.03 | 14.9 | 2.0 |  |  |  |  | 2.7 |  | 18.5 |  |  |  | IC50 [3, 17]: 7.88 µg/mL; IC50 [3, 18]: 29.1 µM; IC50 ([4]; Leishmania donovani, read-out: IC50 Ld): 2.97 ± 0.54 µg/mL; IC50 ([4]; Leishmania donovani, read-out: IC50 Ld (in brackets)): 11 µM; IC50 ([5]; Trypanosoma cruzi, TULAHUEN, read-out: IC50 Tc): 5.02 ± 0.05 µg/mL; IC50 (P. falciparum (NF54 IEF) [6]; [19]): > 5 µg/mL; IC50 (P. falciparum (NF54 IEF) [6]; [20]): > 18 µM
C/C=C\C#CC#CCC/C=C/C=C/C(=O)NCC(C)C [Compound 6, tetradeca-2E,4E,12Z-trien-8,10-diynoic acid isobutylamide] | 6.37 ± 0.94 | 23.7 | 3.1 | 19.4 ± 1.7 | 72.2 | 5.04 ± 1.17 | 18.7 | 3.9 | 38.8 ± 2.1 | 144 | 7.19 ± 0.49 | 26.7 | 2.7 | 
CCCCCCC/C=C/C=C/C(=O)NCCc1ccc(O)cc1 [Compound 7, Dodeca-2E,4E-dienoic acid 4-hydroxy-2-phenylethylamide] | 2.26 ± 0.18 | 7.17 | 0.1 | 0.2 | 0.69 | 4.19 ± 1.64 | 13.3 | <0.1 | 1.88 |  | 3.2 | 10.1 | <0.1 | IC50 Cytotox ([7]; rat): 0.19 ± 0.05 µg/mL (≈ 0.602 µM); IC50 ([5]; Trypanosoma cruzi, TULAHUEN, read-out: IC50 Tc (in brackets)): 5.97 µM; IC50 Pf (P. falciparum (NF54 IEF) [6]; [21]): 3.18 ± 0.20 µg/mL (≈ 10.1 µM)
CCN(CC)CCCC(C)Nc1ccnc2cc(Cl)ccc12 (stereo not drawn) [chloroquine, reference compound] |  |  |  |  |  |  |  |  |  |  |  |  |  | IC50 (P. falciparum (NF54 IEF) [6]; [19]): 0.08 ± 0.003 µg/mL; IC50 (P. falciparum (NF54 IEF) [6]; [20]): 0.25 µM
Nc1nc(N)nc(Nc2ccc([As]3SCC(CO)S3)cc2)n1 (stereo not drawn) [melarsoprol, reference compound] |  |  |  |  |  |  |  |  |  |  |  |  |  | IC50 ([2]; Trypanosoma brucei, read-out: IC50 Tbr): 0.003 ± 0.001 µg/mL; IC50 ([2]; Trypanosoma brucei, read-out: IC50 Tbr (in brackets)): 0.008 µM
CCCCCCCCCCCCCCCCOP(=O)([O-])OCC[N+](C)(C)C [miltefosine, reference compound] |  |  |  |  |  | 0.127 ± 0.052 | 0.312 |  |  |  |  |  |  | 
COc1cc([C@@H]2c3cc4c(cc3[C@H](O)[C@H]3COC(=O)[C@H]23)OCO4)cc(OC)c1OC [podophyllotoxin, reference compound] |  |  |  |  |  |  |  |  |  |  |  |  |  | IC50 [3, 17]: 0.008 ± 0.001 µg/mL; IC50 [3, 18]: 0.019 µM
undeca-2E,4E-dien-8,10-diynoic acid isopentylamide [Compound 5] |  |  | 6.2 |  |  |  |  | 7.0 |  |  |  |  | 2.7 | IC50 Tbr ([2]; STIB 900 strain, bloodstream trypomastigotes, mean of two determinations ± deviation): 4.59 ± 0.39 µg/mL; IC50 ([2]; STIB 900 strain, bloodstream trypomastigotes, value in μM of pure compound, read-out: IC50 Tbr (in brackets)): 18.9 µM; IC50 [7]: 116 µM; IC50 Cytotox [7]: 28.2 ± 6.9 µg/mL; IC50 Ld ([4]; MHOM-ET-67/L82 strain, axenic amastigotes, mean of two determinations ± deviation): 4.04 ± 0.71 µg/mL; IC50 ([4]; MHOM-ET-67/L82 strain, axenic amastigotes, value in μM of pure compound, read-out: IC50 Ld (in brackets)): 16.6 µM; IC50 Tc ([5]; Tulahuen C4 strain, intracellular amastigotes, mean of two determinations ± deviation): 16.3 ± 0.3 µg/mL; IC50 ([5]; Tulahuen C4 strain, intracellular amastigotes, value in μM of pure compound, read-out: IC50 Tc (in brackets)): 66.9 µM; IC50 Pf (P. falciparum (NF54 IEF) [6]; [21]): 10.3 ± 1.4 µg/mL; IC50 (P. falciparum (NF54 IEF) [6]; NF54 IEF, value in μM of pure compound, read-out: IC50 Pf (in brackets)): 42.5 µM
